Experimental data from publication PMC6044753, “Diclofenac Identified as a Kynurenine 3-Monooxygenase Binder and Inhibitor by Molecular Similarity Techniques” (ACS Omega, 2018).

Target: kynurenine 3-monooxygenase (KMO) (Homo sapiens, UniProt O15229)
Assay: microdialysis (rapid equilibrium dialysis) with LC-MS on enriched HEK-KMO lysate; supported by cell lysate enzymatic inhibition, IC50 […]
Format: binding

Chain of kynurenine 3-monooxygenase (KMO) (O15229 whole entry): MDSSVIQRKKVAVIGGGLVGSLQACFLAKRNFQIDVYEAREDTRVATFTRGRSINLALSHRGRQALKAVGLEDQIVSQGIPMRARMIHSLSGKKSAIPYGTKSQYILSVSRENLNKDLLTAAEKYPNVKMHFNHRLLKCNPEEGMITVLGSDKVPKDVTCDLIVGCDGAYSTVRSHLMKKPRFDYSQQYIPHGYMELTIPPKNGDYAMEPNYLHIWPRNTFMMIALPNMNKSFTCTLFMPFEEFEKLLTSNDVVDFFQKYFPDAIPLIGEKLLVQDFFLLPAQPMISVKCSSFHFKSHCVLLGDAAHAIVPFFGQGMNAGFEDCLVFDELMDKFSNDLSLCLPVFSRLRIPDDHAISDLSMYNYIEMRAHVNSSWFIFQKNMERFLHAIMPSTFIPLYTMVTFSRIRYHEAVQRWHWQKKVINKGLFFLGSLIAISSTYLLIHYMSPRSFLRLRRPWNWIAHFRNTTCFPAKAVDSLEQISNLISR

O=C(O)Cc1ccccc1Nc1c(Cl)cccc1Cl [diclofenac]
Kd: 64.8 ± 29.5 µM
